Measured values reported in DBAASP.
Converted amounts (≈) assume the structure as drawn.

Legend:
Assay in all cases: ≥ marks a high value that may be exact or a test limit, other limits are often not marked, values filed in µg/mL are converted to µM
[1] = system: Sinorhizobium meliloti ZB314
Shigella flexneri CP87 = system: Shigella flexneri CP87
[2] = system: Bacillus megaterium QMB 1551
[3] = system: Salmonella enterica subsp. enterica serovar Newport
[4] = system: Brenneria salicis NCPPB 2530
[5] = system: Salmonella typhimurium ATCC 23565
[6] = system: Bacillus thuringiensis serovar tenebrionis DSM 2803
[7] = system: Serratia marcescens ATCC 17991
[8] = system: Paenibacillus alvei LMG 6922
[9] = system: Clavibacter michiganensis subsp. insidiosus NCPPB 1109
[10] = system: Escherichia coli NCTC 9001
[11] = system: Agrobacterium tumefaciens DSM 3129
[12] = system: Bacillus subtilis NRRL B-237
[13] = system: Pseudomonas syringae pv. tomato NCPPB 1106
[14] = system: Acinetobacter baumannii ATCC 17978
[15] = system: Escherichia coli ATCC 8739
[16] = system: Staphylococcus aureus HNCMO 112011
[17] = system: Escherichia coli CMCC 44102
[18] = system: Staphylococcus epidermidis ATCC 12228
[19] = system: Pseudomonas aeruginosa ATCC 27853
[20] = system: Staphylococcus aureus CMCC 26003
[21] = system: Staphylococcus aureus ATCC 29213
[22] = system: Salmonella enterica subsp. enterica serovar Typhimurium C77-31
Escherichia coli UB1005 = system: Escherichia coli UB1005
[23] = system: Salmonella enterica subsp. enterica serovar Typhimurium ATCC 14028
[24] = system: Salmonella enterica subsp. enterica serovar Typhi CMCC 50071
[25] = system: Salmonella enterica subsp. enterica serovar Pullorum C79-13
[26] = system: Staphylococcus aureus ATCC 25923
[27] = system: Aspergillus flavus ATCC MYA-3651
[28] = system: Lichtheimia corymbifera NRRL 6251
Candida albicans 17-88 = system: Candida albicans 17-88
[29] = system: Fusarium solani NRRL 28548
[30] = system: Candida parapsilosis NRRL Y-1761
Kluyveromyces lactis = system: Kluyveromyces lactis
Candida parapsilosis = system: Candida parapsilosis
[31] = system: Pseudomonas aeruginosa ATCC 19660
[32] = system: Candida albicans NRRL Y-326
[33] = system: Klebsiella pneumoniae ATCC 10031
Candida dubliniensis = system: Candida dubliniensis
Debaryomyces hansenii = system: Debaryomyces hansenii
Candida krusei = system: Candida krusei
Candida glabrata = system: Candida glabrata
[34] = system: Staphylococcus aureus ATCC 33592
Staphylococcus aureus = system: Staphylococcus aureus
Enterobacter cloacae = system: Enterobacter cloacae
Cutibacterium acnes = system: Cutibacterium acnes
Staphylococcus aureus MR = system: Staphylococcus aureus MR
[35] = system: Staphylococcus epidermidis ATCC 51625
[36] = system: Cutibacterium acnes ATCC 6919
[37] = system: Mucor circinelloides NRRL 3631
Candida albicans = system: Candida albicans
[38] = system: Cutibacterium acnes ATCC 11827
[39] = system: Candida krusei NRRL Y-27803
Aspergillus fumigatus = system: Aspergillus fumigatus
Candida tropicalis = system: Candida tropicalis

An MIC [1] of 0.0501 µM (≈ 0.1 µg/mL), an MIC (Shigella flexneri CP87) of 0.0501 µM (≈ 0.1 µg/mL) and an MIC [2] of no less than 75.2 µM were found for CC[C@H](C)[C@H](NC(=O)[C@H](Cc1ccc(O)cc1)NC(=O)[C@@H](NC(=O)[C@@H]1CCCN1C(=O)[C@H](CCCN=C(N)N)NC(=O)[C@H](CC(N)=O)NC(=O)[C@H](CC(N)=O)NC(=O)CN)C(C)C)C(=O)N1CCC[C@H]1C(=O)N[C@@H](CCC(N)=O)C(=O)N1CCC[C@H]1C(=O)N[C@@H](CCCN=C(N)N)C(=O)N1CCC[C@H]1C(=O)N1CCC[C@H]1C(=O)N[C@@H](Cc1cnc[nH]1)C(=O)N1CCC[C@H]1C(=O)N[C@@H](CCCN=C(N)N)C(=O)O [GNNRPVYIPQPRPPHPR] in this work. The MIC [3] was 0.1 µM (≈ 0.2 µg/mL), the MIC [4] was 0.01 µM (≈ 0.02 µg/mL) and the MIC [5] was 0.0501 µM (≈ 0.1 µg/mL). For the same molecule, the MIC [6] was no less than 100 µM, the MIC [7] was no less than 100 µM and the MIC [8] was no less than 100 µM. The MIC [9] was 25.1 µM (≈ 50 µg/mL), the MIC [10] was 0.0501 µM (≈ 0.1 µg/mL) and the MIC [11] was 0.1 µM (≈ 0.2 µg/mL). The MIC [12] was no less than 100 µM and the MIC [13] was 0.1 µM (≈ 0.2 µg/mL).
An MIC [14] of 25 µM (≈ 28.5 µg/mL), an MIC [15] of 25 µM (≈ 28.5 µg/mL) and an MIC [16] of 25 µM (≈ 28.5 µg/mL) were found for CC[C@H](C)[C@H](NC(=O)[C@H](CCCCN)NC(=O)[C@H](CCCCN)NC(=O)[C@H](C)NC(=O)[C@H](CC(C)C)NC(=O)[C@H](C)NC(=O)[C@H](C)NC(=O)[C@H](CC(C)C)NC(=O)[C@H](C)NC(=O)[C@@H](N)CCCCN)C(=O)N[C@@H](CC(C)C)C(=O)O [KALAALAKKIL] in this work.
An MIC [17] of 8 µM (≈ 25.1 µg/mL), an MIC [18] of 8 µM (≈ 25.1 µg/mL) and an MIC [19] of 32 µM (≈ 100 µg/mL) were found for CC[C@H](C)[C@H](NC(=O)[C@H](CCCN=C(N)N)NC(=O)[C@H](CCCN=C(N)N)NC(=O)[C@H](CC(C)C)NC(=O)[C@H](Cc1ccccc1)NC(=O)[C@@H]1CCCN1C(=O)[C@H](CCCN=C(N)N)NC(=O)[C@H](CCSC)NC(=O)[C@@H](NC(=O)[C@H](CCCCN)NC(=O)[C@H](CCCCN)NC(=O)[C@H](CS)NC(=O)[C@@H](NC(=O)CNC(=O)[C@@H]1CCCN1C(=O)[C@H](CC(C)C)NC(=O)[C@@H](NC(=O)[C@@H](N)CCCCN)[C@@H](C)CC)C(C)C)[C@@H](C)CC)C(=O)N[C@@H](CO)C(=O)N[C@@H](CCCCN)C(=O)N[C@@H](CC(=O)O)C(=O)N[C@H](C(=O)N[C@@H](CC(C)C)C(=O)N[C@H](C(=O)NCC(=O)N[C@@H](CCCCN)C(=O)N[C@@H](CCCCN)C(N)=O)[C@@H](C)O)[C@@H](C)CC [KILPGVCKKIMRPFLRRISKDILTGKK] in this work. The MIC [20] was 8 µM (≈ 25.1 µg/mL).
An MIC [21] greater than 128 µM, an MIC [18] greater than 128 µM and an MIC [22] of no less than 128 µM were found for NCCCC[C@H](NC(=O)[C@H](CCCCN)NC(=O)[C@H](CCCN=C(N)N)NC(=O)[C@H](CCCN=C(N)N)NC(=O)[C@H](Cc1c[nH]c2ccccc12)NC(=O)[C@H](CCC(N)=O)NC(=O)[C@H](Cc1c[nH]c2ccccc12)NC(=O)[C@H](CCCN=C(N)N)NC(=O)[C@H](CCCN=C(N)N)NC(=O)[C@H](CCCCN)NC(=O)[C@@H](N)CCCCN)C(N)=O [KKRRWQWRRKK] in this work. For the same molecule, the MIC (Escherichia coli UB1005) was no less than 32 µM, the MIC [23] was greater than 128 µM and the MIC [24] was no less than 128 µM. It also gave an MIC [25] of no less than 128 µM and an MIC [26] of 128 µM (≈ 212 µg/mL).
An MIC [27] of 29.7 µM (≈ 63.9 µg/mL), an MIC [28] of 0.927 µM (≈ 2 µg/mL) and an MIC (Candida albicans 17-88) of 7.4 µM (≈ 15.9 µg/mL) were found for CC[C@H](C)[C@@H]1NC(=O)CNC(=O)[C@H](CCCCN)NC(=O)[C@H](Cc2ccc(O)cc2)NC(=O)[C@@H]2CSSC[C@H](NC1=O)C(=O)N[C@@H](Cc1ccc(O)cc1)C(=O)N[C@@H](CCCCN)C(=O)N[C@@H](CCCCN)C(=O)N[C@H](C(=O)N[C@@H](CCCCN)C(N)=O)CSSC[C@H](NC(=O)[C@H](Cc1c[nH]c3ccccc13)NC(=O)[C@@H](N)CCCN=C(N)N)C(=O)N[C@@H](Cc1ccccc1)C(=O)N[C@@H](CCCCN)C(=O)N[C@@H](C(C)C)C(=O)N2 [RWCFKVCYKGICYKKCK] in this work. For the same molecule, the MIC [29] was 0.927 µM (≈ 2 µg/mL), the MIC [14] was 3.71 µM (≈ 7.98 µg/mL) and the MIC [30] was 14.8 µM (≈ 31.9 µg/mL). For the same molecule, the MIC (Kluyveromyces lactis) was 1.9 µM (≈ 4.09 µg/mL), the MIC (Candida parapsilosis) was 15 µM (≈ 32.3 µg/mL) and the MIC [31] was 3.71 µM (≈ 7.98 µg/mL). It also gave an MIC [32] of 5.25 µM (≈ 11.3 µg/mL), an MIC [33] of 3.71 µM (≈ 7.98 µg/mL) and an MIC (Candida dubliniensis) of 3.7 µM (≈ 7.96 µg/mL). For the same molecule, the MIC [19] was 3.71 µM (≈ 7.98 µg/mL), the MIC (Debaryomyces hansenii) was 7.4 µM (≈ 15.9 µg/mL) and the MIC (Candida krusei) was 5.23 µM (≈ 11.3 µg/mL). The MIC (Candida glabrata) was 10.5 µM (≈ 22.7 µg/mL), the MIC [34] was 1.85 µM (≈ 3.99 µg/mL) and the MIC (Staphylococcus aureus) was 5.25 µM (≈ 11.3 µg/mL). The MIC (Enterobacter cloacae) was 3.71 µM (≈ 7.98 µg/mL), the MIC (Cutibacterium acnes) was 1.31 µM (≈ 2.82 µg/mL) and the MIC (Staphylococcus aureus MR) was 2.62 µM (≈ 5.64 µg/mL). It also gave an MIC [35] of 1.85 µM (≈ 3.99 µg/mL), an MIC [36] of 1.85 µM (≈ 3.99 µg/mL) and an MIC [37] of 29.7 µM (≈ 63.9 µg/mL). For the same molecule, the MIC (Candida albicans) was 10.5 µM (≈ 22.7 µg/mL), the MIC [38] was 3.71 µM (≈ 7.98 µg/mL) and the MIC [39] was 10.5 µM (≈ 22.6 µg/mL). The MIC (Aspergillus fumigatus) was 29.7 µM (≈ 63.9 µg/mL) and the MIC (Candida tropicalis) was 1.33 µM (≈ 2.86 µg/mL).
